Results on 21 compounds are retold here after patent US10100041B2, “Pyrazolyl substituted tetrahydropyranylsulfones” (GRÜNENTHAL GMBH, priority 2015, dated 2018).

The target in one test is T1, Human CaV2.2 channels (Homo sapiens, UniProt Q00975).
T1 construct: expressed in transfected cells
T1 sequence (Q00975 whole entry): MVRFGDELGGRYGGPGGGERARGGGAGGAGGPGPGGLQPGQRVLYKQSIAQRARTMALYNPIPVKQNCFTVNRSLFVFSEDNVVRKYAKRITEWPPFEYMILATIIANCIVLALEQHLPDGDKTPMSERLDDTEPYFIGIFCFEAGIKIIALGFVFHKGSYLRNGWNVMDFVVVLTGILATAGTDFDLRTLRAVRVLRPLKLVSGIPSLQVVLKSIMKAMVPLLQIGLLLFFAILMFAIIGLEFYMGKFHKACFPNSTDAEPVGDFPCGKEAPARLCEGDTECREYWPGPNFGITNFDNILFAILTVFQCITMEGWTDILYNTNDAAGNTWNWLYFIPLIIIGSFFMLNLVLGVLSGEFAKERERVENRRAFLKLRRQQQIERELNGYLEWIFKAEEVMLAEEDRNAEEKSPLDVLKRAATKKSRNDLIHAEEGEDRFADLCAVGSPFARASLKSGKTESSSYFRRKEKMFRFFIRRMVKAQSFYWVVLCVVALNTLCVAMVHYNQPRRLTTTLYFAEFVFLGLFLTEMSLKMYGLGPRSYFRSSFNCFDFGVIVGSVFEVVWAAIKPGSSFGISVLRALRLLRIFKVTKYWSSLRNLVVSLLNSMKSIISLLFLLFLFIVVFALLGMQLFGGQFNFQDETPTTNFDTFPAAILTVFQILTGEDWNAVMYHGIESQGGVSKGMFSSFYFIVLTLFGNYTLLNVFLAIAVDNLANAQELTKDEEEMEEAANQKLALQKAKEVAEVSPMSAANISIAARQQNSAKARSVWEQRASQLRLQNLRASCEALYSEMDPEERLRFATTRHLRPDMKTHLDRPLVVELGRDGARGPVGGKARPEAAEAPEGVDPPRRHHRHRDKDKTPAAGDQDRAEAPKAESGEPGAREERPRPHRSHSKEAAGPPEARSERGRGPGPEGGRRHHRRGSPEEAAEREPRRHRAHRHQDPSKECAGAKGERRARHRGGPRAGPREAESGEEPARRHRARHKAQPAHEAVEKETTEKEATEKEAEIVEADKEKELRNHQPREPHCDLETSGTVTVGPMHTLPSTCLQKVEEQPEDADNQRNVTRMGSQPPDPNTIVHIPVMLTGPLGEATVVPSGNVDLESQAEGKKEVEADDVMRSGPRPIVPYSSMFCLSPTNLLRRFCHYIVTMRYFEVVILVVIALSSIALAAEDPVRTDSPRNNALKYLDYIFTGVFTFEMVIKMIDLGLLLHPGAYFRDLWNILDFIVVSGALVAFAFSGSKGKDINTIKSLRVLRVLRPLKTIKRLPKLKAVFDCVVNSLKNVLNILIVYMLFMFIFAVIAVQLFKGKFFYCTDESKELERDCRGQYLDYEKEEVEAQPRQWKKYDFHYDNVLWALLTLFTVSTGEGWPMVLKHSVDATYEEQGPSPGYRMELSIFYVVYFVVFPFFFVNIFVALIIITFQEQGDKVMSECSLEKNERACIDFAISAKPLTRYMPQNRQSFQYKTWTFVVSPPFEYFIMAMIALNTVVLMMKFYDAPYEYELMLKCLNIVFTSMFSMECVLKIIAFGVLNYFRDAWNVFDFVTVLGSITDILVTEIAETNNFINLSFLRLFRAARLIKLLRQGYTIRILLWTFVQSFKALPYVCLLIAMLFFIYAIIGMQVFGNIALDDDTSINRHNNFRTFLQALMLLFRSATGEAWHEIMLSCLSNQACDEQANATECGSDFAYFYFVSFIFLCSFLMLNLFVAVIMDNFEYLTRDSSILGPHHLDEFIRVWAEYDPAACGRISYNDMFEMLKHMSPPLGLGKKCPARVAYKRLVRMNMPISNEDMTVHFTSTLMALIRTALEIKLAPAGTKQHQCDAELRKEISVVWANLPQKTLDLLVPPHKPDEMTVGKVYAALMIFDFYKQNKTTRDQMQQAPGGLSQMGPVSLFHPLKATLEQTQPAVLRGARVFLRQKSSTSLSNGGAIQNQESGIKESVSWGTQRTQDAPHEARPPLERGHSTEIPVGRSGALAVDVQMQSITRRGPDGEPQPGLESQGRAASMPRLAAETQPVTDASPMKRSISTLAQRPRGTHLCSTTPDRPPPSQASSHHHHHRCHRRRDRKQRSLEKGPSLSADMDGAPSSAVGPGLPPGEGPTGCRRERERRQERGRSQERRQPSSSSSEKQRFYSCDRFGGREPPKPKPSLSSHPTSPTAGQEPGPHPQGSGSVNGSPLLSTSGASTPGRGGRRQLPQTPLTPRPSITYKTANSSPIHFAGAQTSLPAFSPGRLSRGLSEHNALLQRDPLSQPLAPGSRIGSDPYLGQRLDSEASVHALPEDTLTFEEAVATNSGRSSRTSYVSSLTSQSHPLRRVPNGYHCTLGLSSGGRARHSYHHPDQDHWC
Description: Fluorescence assay for CaV2.2 channels using potassium depolarization to induce channel opening (FLIPR, Fluo 4). In kind it is cell-based. As to conditions: 3 μM test compound; 30 mM KCl (alternative assay buffer, inactivated channel state); HEK293 cells. The source says: In the process, the Ca^2+ influx is quantified in the FLIPR assay with the aid of a Ca^2+-sensitive dye (type Fluo-4, Molecular Probes Europe BV, Leiden, the Netherlands) in a fluorescent imaging plate reader (FLIPR 3, Molecular Devices, Sunnyvale, USA), as described hereinafter.
2.1 Fluorescence Assay for CaV2.2 Channels Using Potassium Depolarization to Induce Channel Opening
Human CaV2.2 channels were stably expressed in HEK293 cells together with alpha2-delta and beta subunits of voltage gated calcium channels. In addition, an inwardly rectifying potassium channel (Kir2.3) was stably expressed in these cells to augment control of the cell membrane potential by the concentration of extracellular potassium ions. Raise of the extracellular potassium concentration leads to depolarization of the membrane potential and thus regulates the voltage dependent state of CaV2.2 channels. For preparation, cells were seeded in black poly-D-lysine coated 96-well plates (Becton Dickinson, Biocoat 4640) in 100 μL medium [500 mL DMEM/F-12 plus Glutamax (Invitrogen 31331-093) plus 5.5 mL MEM NEAA 100× (Invitrogen 11140-035) plus 50 mL FBS decomplemented (Invitrogen 10270-106) plus 200 μg/mL Geneticin (Invitrogen 10131-027) plus 50 μg/mL Hygromycin B (Invitrogen 10687-010) plus 2 μg/mL Blasticidin (anti-b15b Invivo-Gen) plus 0.2 μg/mL Puromycin (A 11138-03)] at a cell density of 30.000 cells per well. Plates were incubated at 37° C. (5% CO2) for 20 to 23 h. On the day of experiment medium was discarded and cells were loaded with Fluo 4 by addition of 100 μL of basic assay buffer (10 mM HEPES, 1 mM KCl, 149 mM NaCl, 0.8 mM CaCl2, 1.7 mM MgCl2, 10 mM Glucose, 0.1% BSA. pH 7.4) containing 2 μM Fluo 4 (Molecular Probes; F-14201), 0.01% pluronic acid (Molecular Probes; P-6866) and 2.5 mM probenecid (Molecular Probes; P36400). Cells were incubated in the dark at 25° C. for 60 min. Then dye containing buffer was discarded and […] basic (1 mM KCl) or alternative (30 mM KCl) assay buffer was added. The alternative assay buffer contained altered concentrations of KCl (30 mM) and NaCl (120 mM) and was used in order to promote the inactivated channel state. After that 25 μL of basic or alternative assay buffer with or without test compound were added and cells were incubated again in the dark at 25° C. for 15 min. Fluorescence intensity was measured on a FLIPR 3 instrument (Molecular Devices Corp., Sunnyvale, Calif.) with excitation at 480 nm and emission at 535 nm. After continuously reading fluorescence for 30 sec, 50 μL of basic assay buffer containing 210 mM KCl (NaCl omitted) were added for depolarization. Peak fluorescent signal intensity was determined and the amplitude of the peak signal, normalized to base line, was used to measure channel inhibition by test compounds.
In the case of `CC1(S(=O)(=O)c2cccc(C(F)(F)F)c2)CCOC(c2cc(C(F)(F)F)nn2CCO)C1` (stereo not drawn) [Example 2 cis-EN2, 2-[5-[4-Methyl-4-[[3-(trifluoromethyl)phenyl]sulfonyl]-tetrahydro-pyran-2-yl]-3-(trifluoromethyl)-1H-pyrazol-1-yl]-ethanol], the “Activity Category: %-Inhib (CaV2.2) @3 μM @30 mM KCl” value (“Activity Category: %-Inhib” below) is “A (“A”: %-Inhibition >95%)”.

Take `CC1(S(=O)(=O)c2cccc(C(F)(F)F)c2)CCOC(c2cc(S(=O)(=O)C(F)F)nn2CCO)C1` (stereo not drawn) [Example 25 cis-EN2, 2-[3-(Difluoro-methylsulfonyl)-5-[4-methyl-4-[[3-(trifluoromethyl)phenyl]sulfonyl]-tetrahydro-pyran-2-yl]-1H-pyrazol-1-yl]-ethanol]: the “Activity Category: %-Inhib” value is listed as “A (“A”: %-Inhibition >95%)”.

For `CC(C)(C(N)=O)n1nc(C(F)(F)F)cc1C1CC(C)(S(=O)(=O)c2cccc(C(F)(F)F)c2)CCO1` (stereo not drawn) [Example 26 cis-EN2, 2-Methyl-2-[5-[4-methyl-4-[[3-(trifluoromethyl)phenyl]sulfonyl]-tetrahydro-pyran-2-yl]-3-(trifluoromethyl)-1H-pyrazol-1-yl]-propionamide], the “Activity Category: %-Inhib” value is reported as “B (“B”: %-Inhibition >75% up to ≤95%)”.

With `CC(C)(CO)n1nc(C(F)(F)F)cc1C1CC(C)(S(=O)(=O)c2cccc(C(F)(F)F)c2)CCO1` (stereo not drawn) [Example 6 cis-EN2, 2-Methyl-2-[5-[4-methyl-4-[[3-(trifluoromethyl)phenyl]sulfonyl]-tetrahydro-pyran-2-yl]-3-(trifluoromethyl)-1H-pyrazol-1-yl]-propan-1-ol], the “Activity Category: %-Inhib” value is reported as “A (“A”: %-Inhibition >95%)”.

With `CC1(S(=O)(=O)c2cccc(C(F)(F)F)c2)CCOC(c2cc(C(F)(F)F)nn2CCS(C)(=O)=O)C1` (stereo not drawn) [Example 19 cis-EN1, 1-(2-Methylsulfonyl-ethyl)-5-[4-methyl-4-[[3-(trifluoromethyl)phenyl]sulfonyl]-tetrahydro-pyran-2-yl]-3-(trifluoromethyl)-1H-pyrazole], the “Activity Category: %-Inhib” value is “B (“B”: %-Inhibition >75% up to ≤95%)”.

The same test, now with this note: HEK293, 3 μM test compound; 30 mM KCl (alternative assay buffer, inactivated channel state); HEK293 cells; read-out: Activity Category: %-Inhib (CaV2.2) @3 μM @30 mM KCl.
Regarding `CC1(S(=O)(=O)c2cccc(C(F)(F)F)c2)CCOC(c2cc(C(F)(F)F)nn2CCO)C1` (racemic) [Example 2 trans-rac, 2-[5-[4-Methyl-4-[[3-(trifluoromethyl)phenyl]sulfonyl]-tetrahydro-pyran-2-yl]-3-(trifluoromethyl)-1H-pyrazol-1-yl]-ethanol], the inhibition at 3 µM fell in the range of 40 to 75%.

Regarding `CC1(S(=O)(=O)c2cccc(C(F)(F)F)c2)CCOC(c2cc(C(F)(F)F)nn2CC2(N)CC2)C1` (racemic) [Example 15 cis-rac, [1-[[5-[4-Methyl-4-[[3-(trifluoromethyl)phenyl]sulfonyl]-tetrahydro-pyran-2-yl]-3-(trifluoromethyl)-1H-pyrazol-1-yl]-methyl]-cyclopropyl]-amine], the inhibition at 3 µM is over 95%.

On to `COCn1nc(C(F)F)cc1C1CC(C)(S(=O)(=O)c2cccc(C(F)(F)F)c2)CCO1` (stereo not drawn) [Example 5 cis-EN1, 3-(Difluoromethyl)-1-(methoxymethyl)-5-(4-methyl-4-((3-(trifluoromethyl)phenyl)sulfonyl)tetrahydro-2H-pyran-2-yl)-1H-pyrazole], for which the inhibition at 3 µM lay in the range of 75 to 95%.

As to `COCCCn1nc(C(F)(F)F)cc1C1CC(C)(S(=O)(=O)c2cccc(C(F)(F)F)c2)CCO1` (racemic) [Example 10 cis-rac, 1-(3-Methoxypropyl)-5-(4-methyl-4-((3-(trifluoromethyl)phenyl)sulfonyl)tetrahydro-2H-pyran-2-yl)-3-(trifluoromethyl)-1H-pyrazole], the inhibition at 3 µM is over 95%.

Consider `COCn1nc(C(F)(F)F)cc1C1CC(C)(S(=O)(=O)c2cccc(C(F)(F)F)c2)CCO1` (stereo not drawn) [Example 21 cis-EN1, 1-(Methoxymethyl)-5-[4-methyl-4-[[3-(trifluoromethyl)phenyl]sulfonyl]-tetrahydro-pyran-2-yl]-3-(trifluoromethyl)-1H-pyrazole], for which the inhibition at 3 µM was over 95%.

On to `CC1(S(=O)(=O)c2cccc(C(F)(F)F)c2)CCOC(c2cc(C(F)(F)F)nn2C2COC2)C1` (stereo not drawn) [Example 17 cis-EN1, 5-[4-Methyl-4-[[3-(trifluoromethyl)phenyl]sulfonyl]-tetrahydro-pyran-2-yl]-1-(oxetan-3-yl)-3-(trifluoromethyl)-1H-pyrazole], for which the inhibition at 3 µM was 75 to 95%.

`CC1(S(=O)(=O)c2cccc(C(F)(F)F)c2)CCOC(c2cc(S(C)(=O)=O)nn2CCO)C1` (stereo not drawn) [Example 4 cis-EN1, 2-[3-Methylsulfonyl-5-[4-methyl-4-[[3-(trifluoromethyl)phenyl]sulfonyl]-tetrahydro-pyran-2-yl]-1H-pyrazol-1-yl]-ethanol]: the inhibition at 3 µM lay within 40 to 75%.

As to `CNC(=O)Cn1nc(C(F)(F)F)cc1C1CC(C)(S(=O)(=O)c2cccc(C(F)(F)F)c2)CCO1` (stereo not drawn) [Example 29 cis-EN1, N-Methyl-2-[5-[4-methyl-4-[[3-(trifluoromethyl)phenyl]sulfonyl]-tetrahydro-pyran-2-yl]-3-(trifluoromethyl)-1H-pyrazol-1-yl]-acetamide], the inhibition at 3 µM lay within 75 to 95%.

For `CC1(S(=O)(=O)c2cccc(C(F)(F)F)c2)CCOC(c2cc(S(=O)(=O)C(F)F)nn2CCO)C1` (stereo not drawn) [Example 25 cis-EN1, 2-[3-(Difluoro-methylsulfonyl)-5-[4-methyl-4-[[3-(trifluoromethyl)phenyl]sulfonyl]-tetrahydro-pyran-2-yl]-1H-pyrazol-1-yl]-ethanol], the inhibition at 3 µM lay within 75 to 95%.

Consider `CC1(S(=O)(=O)c2cccc(C(F)(F)F)c2)CCOC(c2cc(C(F)(F)F)nn2C2CS(=O)(=O)C2)C1` (stereo not drawn) [Example 20 cis-EN1, 3-[5-[4-Methyl-4-[[3-(trifluoromethyl)phenyl]sulfonyl]-tetrahydro-pyran-2-yl]-3-(trifluoromethyl)-1H-pyrazol-1-yl]-thietane-1,1-dioxide], for which the inhibition at 3 µM was 75 to 95%.

As to `CC(C)(CO)n1nc(C(F)(F)F)cc1C1CC(C)(S(=O)(=O)c2cccc(C(F)(F)F)c2)CCO1` (stereo not drawn) [Example 6 cis-EN1, 2-Methyl-2-[5-[4-methyl-4-[[3-(trifluoromethyl)phenyl]sulfonyl]-tetrahydro-pyran-2-yl]-3-(trifluoromethyl)-1H-pyrazol-1-yl]-propan-1-ol], the inhibition at 3 µM fell in the range of 75 to 95%.

Consider `CC1(S(=O)(=O)c2cccc(C(F)(F)F)c2)CCOC(c2cc(C(F)(F)F)nn2CCS(C)(=O)=O)C1` (stereo not drawn) [Example 19 cis-EN2, 1-(2-Methylsulfonyl-ethyl)-5-[4-methyl-4-[[3-(trifluoromethyl)phenyl]sulfonyl]-tetrahydro-pyran-2-yl]-3-(trifluoromethyl)-1H-pyrazole], for which the inhibition at 3 µM is over 95%.

On to `CC(CO)Cn1nc(C(F)(F)F)cc1C1CC(C)(S(=O)(=O)c2cccc(C(F)(F)F)c2)CCO1` (racemic) [Example 24 cis-rac, 2-Methyl-3-[5-[4-methyl-4-[[3-(trifluoromethyl)phenyl]sulfonyl]-tetrahydro-pyran-2-yl]-3-(trifluoromethyl)-1H-pyrazol-1-yl]-propan-1-ol], for which the inhibition at 3 µM was over 95%.

As for `CC(C)(C(N)=O)n1nc(C(F)(F)F)cc1C1CC(C)(S(=O)(=O)c2cccc(C(F)(F)F)c2)CCO1` (stereo not drawn) [Example 26 cis-EN1, 2-Methyl-2-[5-[4-methyl-4-[[3-(trifluoromethyl)phenyl]sulfonyl]-tetrahydro-pyran-2-yl]-3-(trifluoromethyl)-1H-pyrazol-1-yl]-propionamide], the inhibition at 3 µM was over 95%.

Turning to `CC1(S(=O)(=O)c2cccc(C(F)(F)F)c2)CCOC(c2cc(C(F)(F)F)nn2CCO)C1` (stereo not drawn) [Example 2 cis-EN1, 2-[5-[4-Methyl-4-[[3-(trifluoromethyl)phenyl]sulfonyl]-tetrahydro-pyran-2-yl]-3-(trifluoromethyl)-1H-pyrazol-1-yl]-ethanol], the inhibition at 3 µM was 75 to 95%.

As to `CN(C)C(=O)Cn1nc(C(F)(F)F)cc1C1CC(C)(S(=O)(=O)c2cccc(C(F)(F)F)c2)CCO1` (stereo not drawn) [Example 28 cis-EN1, N,N-Dimethyl-2-[5-[4-methyl-4-[[3-(trifluoromethyl)phenyl]sulfonyl]-tetrahydro-pyran-2-yl]-3-(trifluoromethyl)-1H-pyrazol-1-yl]-acetamide], the inhibition at 3 µM is 75 to 95%.
